What was measured:
Stat5 = Stat5 phosphorylation in cancer cells (summary); format: cell-based, human; conditions: read-out: IC50, inhibition of Stat5 phosphorylation, range over cell lines
Text: Down-regulation of Stat5 phosphorylation by IST5 can theoretically be caused by IST5 blocking Stat5 monomer docking to the activated receptor-Jak2 complex (Figure 1) and/or by IST5 inhibition of Jak2 kinase activity. […] To further investigate whether IST5 is able to disrupt dimerization of Stat5 molecules, we employed two separate cell-based assays. […] Because both phosphorylation and dimerization of Stat5 were inhibited at similar concentrations of IST5, it is difficult to determine whether disruption of Stat5 dimerization by IST5 is caused by suppression of Stat5 phosphorylation or a direct effect of IST5 in hindering Stat5 dimer-formation or both events occurring at the same time in the cell. However, it is known that heteromolecular interactions are easier to disrupt than interactions between two Stat5 monomers implying that the primary mechanism of action of IST5 may be suppression of Stat5 docking to the receptor-kinase complex. It is important to note that bypassing tyrosine kinases responsible for Stat5 phosphorylation by utilizing direct Stat5 inhibitor would be advantageous for therapy development for Stat5-regulated cancers because targeting Stat5 directly is likely to cause less off-target side effects than targeting kinases or cell surface receptors.

JAK2 = JAK2 (Homo sapiens, UniProt O60674); assay: Cell-based tyrosine phosphorylation of Jak kinases (IP/immunoblot); parameters: endogenous in cells; host or cells: DU145 and CWR22Pc; conditions: 6 µM, 6 h
Sequence of JAK2 (O60674 whole entry): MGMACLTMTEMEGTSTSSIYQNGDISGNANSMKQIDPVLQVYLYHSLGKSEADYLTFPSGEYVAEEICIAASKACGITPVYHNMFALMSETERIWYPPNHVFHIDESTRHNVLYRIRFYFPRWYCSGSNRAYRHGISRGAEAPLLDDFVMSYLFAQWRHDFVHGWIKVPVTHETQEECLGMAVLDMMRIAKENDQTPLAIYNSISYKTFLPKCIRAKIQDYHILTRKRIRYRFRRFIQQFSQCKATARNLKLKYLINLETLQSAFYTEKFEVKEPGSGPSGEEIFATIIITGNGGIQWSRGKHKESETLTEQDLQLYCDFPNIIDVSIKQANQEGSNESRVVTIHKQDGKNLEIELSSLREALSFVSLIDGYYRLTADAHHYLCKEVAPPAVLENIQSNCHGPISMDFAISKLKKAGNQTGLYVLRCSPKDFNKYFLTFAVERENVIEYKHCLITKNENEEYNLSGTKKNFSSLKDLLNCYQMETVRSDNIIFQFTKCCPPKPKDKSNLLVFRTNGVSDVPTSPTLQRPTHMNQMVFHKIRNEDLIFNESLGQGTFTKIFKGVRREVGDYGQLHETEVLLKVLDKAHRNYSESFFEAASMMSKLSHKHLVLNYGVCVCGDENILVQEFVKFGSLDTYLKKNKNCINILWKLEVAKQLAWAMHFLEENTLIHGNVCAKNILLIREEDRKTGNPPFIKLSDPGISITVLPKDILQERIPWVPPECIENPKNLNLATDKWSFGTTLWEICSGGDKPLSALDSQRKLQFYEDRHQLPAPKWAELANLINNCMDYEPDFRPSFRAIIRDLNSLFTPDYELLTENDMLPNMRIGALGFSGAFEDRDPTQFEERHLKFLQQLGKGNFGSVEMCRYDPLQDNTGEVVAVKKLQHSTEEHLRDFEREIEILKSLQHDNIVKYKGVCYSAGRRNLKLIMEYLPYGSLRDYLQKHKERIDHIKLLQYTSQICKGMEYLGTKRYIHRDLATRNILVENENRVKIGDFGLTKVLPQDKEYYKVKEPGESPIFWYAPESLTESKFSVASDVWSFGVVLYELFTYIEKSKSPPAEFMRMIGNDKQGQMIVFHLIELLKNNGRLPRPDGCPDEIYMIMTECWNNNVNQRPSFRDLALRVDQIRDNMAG
Text: (§1) Figure 5 Both IST5 and IST5-M suppress dimerization of Stat5 with similar efficacies in prostate cancer cells. (A), IST5 and IST5-M inhibit equally potently dimerization of Stat5 in native-gel-based Stat5 dimerization assay. CWR22Rv1 cells were transfected with STAT5A-eYFP (Stat5 wild type), STAT5A-N642H-eYFP (constitutive activated Stat5 by N642H mutation, as a positive control) or STAT3-eYFP (Stat3 wild type, as a negative control) constructs for 3 days. CWR22Rv1 cells were serum-starved for 16 h, pretreated with vanadate (1 mM) for 2 h, followed by treatment with vehicle, IST5 and IST5-M (1 µM) for 6 h and stimulation with Prl (10 nM) for 1 h. Dimerization of Stat5 was analyzed by detection of the eYFP fluorescence of the native Coomassie gel. (B), IST5 and IST5-M inhibited cytokine-induced dimerization of Stat5 with high efficacy in PC cells. PC-3 cells were co-transfected with pCMV-3Flag-Stat5a, pCMV-3Myc-Stat5a, and pPrlR plasmids. Cells were serum-starved for 16 h, pretreated with IST5, IST5-M or vehicle at indicated concentrations for 2 h, followed by stimulation with Prl (10 nM) for 30 min. Anti-MYC mAb was utilized to immunoprecipitate the MYC-tagged Stat5a and blotted with anti-FLAG mAb or anti-MYC mAb, as indicated. […] (C), densitometric analyses of the Stat5 dimerization data based on co-immunoprecipitations and immunoblotting in (B). […] Prostate cancer cells were treated with IST5 (6 µM) or vehicle for 6 h. Jak1, Jak2, Jak3 and Tyk2 were immunoprecipitated and blotted with anti-phospho-tyrosine, Jak1, Jak2, Jak3 and Tyk2 antibodies. Whole cell lysates (WCL) were immunoblotted for actin. (E), differences in posttranslational modifications were detected between native and recombinant STAT5a using mass spectrometry. Native STAT5a from CWR22Rv1 cells and recombinant STAT5a from E. coli were gel-purified, digested using trypsin, and analyzed by bottom-up mass spectrometry. Native full-length STAT5a (blue) is show with recombinant STAT5A highlighted (red). Sites of acetylation and phosphorylation from the respective sources are noted including two previously published sites of phosphorylation (asterisk).
(§2) Given that IST5 suppresses phosphorylation of Stat5 in PC cells, it is possible that IST5 inhibits the kinase(s) responsible for Stat5 phosphorylation and activation in PC cells. To evaluate if IST5 affects kinase activity in cancer cells, we tested kinase inhibitory activity of IST5 in two custom-tailored panels including 54 relevant kinases (Table 1), including Jak1, Jak2, Jak3, Tyk2, Abl1, Abl2, Lck, Fyn, Src and TrkB/C. In addition, we further tested if IST5 inhibits tyrosine phosphorylation of Jak1, Jak2, Jak3 or Tyk2 using a cell-based assay (Figure 5D), where phosphorylation of the kinase is indicative of enzymatic kinase activity. DU145 and CWR22Rv1 cells were treated with IST5 (6 µM) for 6 h followed by immunoprecipitation of Jak1, Jak2, Jak3 and Tyk2 and immunoblotting with anti-phospho-tyrosine antibody. […] Collectively, these findings indicate that the inhibitory effect of IST5 on Stat5 phosphorylation in cancer cells is not due to inhibition of Jak2 or other key kinases including Jak1, Jak3, Tyk2, Src, Lck, Fyn, TrkB/C, Abl1 or Abl2 (Table 1, Figure 5D).
(§3) Cell pellets were solubilized in the lysis buffer (10 mM Tris-HCl (pH 7.6), 5 mM EDTA, 50 mM sodium chloride, 30 mM sodium pyrophosphate, 50 mM sodium fluoride, 1 mM sodium orthovanadate, 1% Triton X-100, 1 mM phenylmethylsulfonyl fluoride, 5 µg/mL aprotinin, 1 µg/mL pepstatin A and 2 µg/mL leupeptin), and protein concentrations of clarified cell lysates were determined by a simplified Bradford method (Bio-Rad, Hercules, CA, USA). The whole cell lysates were immunoprecipitated with polyclonal antibodies (Table S1) followed by incubation with protein A-Sepharose beads (GE Healthcare, Chicago, IL, USA). […]

JAK1 = JAK1 (Homo sapiens, UniProt P23458); assay: as above; parameters: endogenous in cells; host or cells: DU145 and CWR22Pc; conditions: 6 µM, 6 h
Sequence of JAK1 (P23458 whole entry): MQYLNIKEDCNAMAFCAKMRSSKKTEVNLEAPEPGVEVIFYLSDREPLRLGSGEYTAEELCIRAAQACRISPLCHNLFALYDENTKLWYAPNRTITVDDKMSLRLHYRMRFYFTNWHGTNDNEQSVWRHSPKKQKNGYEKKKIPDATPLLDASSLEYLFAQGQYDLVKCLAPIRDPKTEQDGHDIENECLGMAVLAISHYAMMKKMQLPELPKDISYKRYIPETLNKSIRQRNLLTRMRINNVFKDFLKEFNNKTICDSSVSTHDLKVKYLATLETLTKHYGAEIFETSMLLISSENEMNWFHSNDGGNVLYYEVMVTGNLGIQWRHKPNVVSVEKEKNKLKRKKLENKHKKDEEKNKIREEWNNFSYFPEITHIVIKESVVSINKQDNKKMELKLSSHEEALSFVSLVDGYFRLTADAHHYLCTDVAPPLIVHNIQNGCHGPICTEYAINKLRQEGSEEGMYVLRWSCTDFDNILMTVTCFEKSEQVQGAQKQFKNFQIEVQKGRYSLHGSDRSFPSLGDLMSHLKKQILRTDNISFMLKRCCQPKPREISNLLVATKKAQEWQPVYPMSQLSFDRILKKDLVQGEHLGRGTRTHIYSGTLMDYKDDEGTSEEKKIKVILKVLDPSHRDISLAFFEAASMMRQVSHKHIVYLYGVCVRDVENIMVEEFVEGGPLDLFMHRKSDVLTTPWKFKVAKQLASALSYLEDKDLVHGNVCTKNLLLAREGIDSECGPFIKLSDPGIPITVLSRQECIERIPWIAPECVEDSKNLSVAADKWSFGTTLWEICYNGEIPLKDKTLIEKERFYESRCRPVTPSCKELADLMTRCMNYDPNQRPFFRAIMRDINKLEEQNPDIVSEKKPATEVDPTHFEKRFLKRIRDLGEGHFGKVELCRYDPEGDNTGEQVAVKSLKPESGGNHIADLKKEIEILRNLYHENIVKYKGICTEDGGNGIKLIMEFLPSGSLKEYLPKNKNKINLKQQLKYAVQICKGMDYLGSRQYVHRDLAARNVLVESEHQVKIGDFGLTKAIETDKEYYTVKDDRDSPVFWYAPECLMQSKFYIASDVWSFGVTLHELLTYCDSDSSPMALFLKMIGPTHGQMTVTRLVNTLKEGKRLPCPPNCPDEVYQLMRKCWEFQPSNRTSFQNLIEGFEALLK
Text: as §1, §2, §3

Structure (SMILES): O=P(O)(O)OCC1OC(n2cnc3c(NCc4ccccc4)ncnc32)C(O)C1O (centres unmarked) [IST5]
- IC50 (Stat5): 1100 to 1300 nM
- phosphorylation of Jak2 (JAK2; CWR22Pc cells): did not alter
- phosphorylation of Jak2 (JAK2; DU145 cells): did not alter
- phosphorylation of Jak1 (JAK1; CWR22Pc cells): did not alter
- phosphorylation of Jak1 (JAK1; DU145 cells): did not alter
